Patent US8802663B2, “Pyrazole oxadiazole derivatives as S1P1 agonists” (Merck Serono SA, priority 2009, dated 2014)
Counter-ions that a name gives are not always drawn.

Columns and labels:
[1] = biological target: T1, S1P1 (Homo sapiens (Human), UniProt P21453); experiment: Receptor binding assay, [33P]sphingosine 1-phosphate, membranes from CHO cells expressing S1P1; conditions: CHO cell membranes, 25 pM [33P]sphingosine 1-phosphate
Procedure: (§1) Receptor binding assay: Membranes were prepared from CHO cells expressing S1P1 or S1P3 for use in ligand and […] binding studies. Cells were suspended in 50 mM TRIS, pH 7.4, 2 mM EDTA, 250 mM Sucrose (buffer A) and 1× Complete protease inhibitor cocktail (Roche), and disrupted at 4° C. by N2 decompression using a cell disruption bomb (Parr Instrument). Following centrifugation at 1000 RPM for 10 min at 4° C., the supernatant was suspended in buffer A and centrifuged again at 19000 RPM for 60 min at 4° C. The pellet was then suspended in 10 mM HEPES, pH 7.4, 1 mM EDTA, 250 mM Sucrose (Buffer B), and 1× Complete EDTA-free protease inhibitor cocktail and homogenized using a potter. Membranes were flash frozen in liquid N2 and stored at −80° C. [33P]sphingosine 1-phosphate (3000 Ci/mmol; American Radiolabeled Chemicals, Inc.) was added to test compounds in DMSO. Membranes and WGA SPA beads (GE Healthcare) were added to give a final volume of 100 μl in 96-well plates with assay concentrations of 25 pM or 10 pM [33P]sphingosine 1-phosphate (respectively for S1P1 or S1P3), 50 mM HEPES, pH 7.5, 5 mM MgCl2, 100 mM NaCl, 0.4% fatty acid-free BSA, 1-5 μg/well of proteins and 100 μg/well of WGA SPA beads. Binding was performed for 60 min at RT on a shaker and bound radioactivity was measured on a PerkinElmer 1450 MicroBeta counter. Specific binding was calculated by subtracting remaining radioactivity in the presence of 1000-fold excess of unlabeled SIP. Binding data were analyzed using the GraphPad Prism program.

[2] = biological target: T1, S1P1; experiment: 35S-GTPγS binding, membranes from CHO cells expressing S1P1; type: biochemical; conditions: CHO cell membranes
[3] = biological target: S1P3 (Homo sapiens (Human), UniProt Q99500); experiment: 35S-GTPγS binding, membranes from CHO cells expressing S1P3; type: biochemical; conditions: CHO cell membranes
Procedure: as §1
Measurements of 35S-GTPγS Binding: Membranes (1 to 10 μg protein) prepared as described above, were incubated in 96-well Scintiplates (PerkinElmer) with test compounds diluted in DMSO, in 180 μl of 20 mM HEPES, pH 7.4, 10 mM MgCl2, 2 μg/well Saponin, 0.2% fatty acid free BSA (Assay buffer), 140 mM NaCl and 1.7 μM GDP. The assay was initiated with the addition of 20 μl of 1.5 nM [35S]-GTPγS (1100 Ci/mmol; GE Healthcare) in assay buffer. After 60 min incubation at 30° C. on a shaker, plates were centrifuged for 10 min at 2000 RPM. Supernatant was discarded and membrane bound radioactivity was measured on a PerkinElmer 1450 MicroBeta counter. Triplicate samples were averaged and expressed as % response relative to S1P activation in absence of compound (n=2).

T1 sequence (P21453 whole entry, species assumed): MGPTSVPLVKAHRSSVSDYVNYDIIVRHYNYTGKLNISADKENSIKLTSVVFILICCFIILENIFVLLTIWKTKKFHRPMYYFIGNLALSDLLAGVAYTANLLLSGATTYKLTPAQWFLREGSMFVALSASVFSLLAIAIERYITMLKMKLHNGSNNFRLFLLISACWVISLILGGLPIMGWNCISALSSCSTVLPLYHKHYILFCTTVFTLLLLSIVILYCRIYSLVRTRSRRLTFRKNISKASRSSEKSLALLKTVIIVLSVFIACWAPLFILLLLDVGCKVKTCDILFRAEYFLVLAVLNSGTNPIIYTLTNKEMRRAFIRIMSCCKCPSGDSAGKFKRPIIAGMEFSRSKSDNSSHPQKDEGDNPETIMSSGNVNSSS
Sequence of S1P3 (Q99500 whole entry, species assumed): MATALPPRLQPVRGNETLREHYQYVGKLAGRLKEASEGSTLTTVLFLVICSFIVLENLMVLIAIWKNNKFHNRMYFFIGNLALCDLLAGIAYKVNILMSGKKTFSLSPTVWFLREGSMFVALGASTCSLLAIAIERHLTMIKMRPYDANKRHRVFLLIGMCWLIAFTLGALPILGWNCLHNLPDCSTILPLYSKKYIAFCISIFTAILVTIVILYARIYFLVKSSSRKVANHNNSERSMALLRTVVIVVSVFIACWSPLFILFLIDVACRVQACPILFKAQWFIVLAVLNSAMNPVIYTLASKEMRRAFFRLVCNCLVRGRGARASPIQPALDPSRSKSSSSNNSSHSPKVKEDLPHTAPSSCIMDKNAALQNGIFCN

SMILES	Ki [1]	EC50 [2]	EC50 [3]
COCc1c(-c2nc(-c3cc(F)ccc3F)no2)cnn1-c1ccccc1 [Example 1, 3-(2,5-difluorophenyl)-5-(5-(methoxymethyl)-1-phenyl-1H-pyrazol-4-yl)-1,2,4-oxadiazole]	272 nM	304 nM	> 20000 nM
CS(=O)(=O)c1cccc(-c2noc(-c3cnn(-c4ccccc4F)c3-c3ccncc3)n2)c1 [Example 9, 4-(1-(2-fluorophenyl)-4-{3-[3-(methylsulfonyl)phenyl]-1,2,4-oxadiazol-5-yl}-1H-pyrazol-5-yl)pyridine]	5 nM	28 nM	> 20000 nM
Fc1ccc(F)c(-c2noc(-c3cnn(C4CCCCC4)c3-c3ccccc3)n2)c1 [Example 11]	9 nM	6 nM	142 nM
c1cc(-c2c(-c3nc(-c4ccc5[nH]ncc5c4)no3)cnn2C2CCCCC2)ccn1 [Example 38, 5-[5-(1-cyclohexyl-5-pyridin-4-yl-1H-pyrazol-4-yl)-1,2,4-oxadiazol-3-yl]-1H-indazole]	68 nM	3 nM	474 nM
CC(C)Cn1ncc(-c2nc(-c3ccc(CN4CC(C(=O)O)C4)cc3)no2)c1-c1ccncc1 [Example 79, 1-(4-(5-(1-isobutyl-5-(pyridin-4-yl)-1H-pyrazol-4-yl)-1,2,4-oxadiazol-3-yl)benzyl)azetidine-3-carboxylic acid]	2.3 nM	9.5 nM	1470 nM
CC(C)Cn1ncc(-c2nc(-c3ccc(CNCCC(=O)O)cc3)no2)c1-c1ccncc1 [Example 89, 3-(4-(5-(1-isobutyl-5-(pyridin-4-yl)-1H-pyrazol-4-yl)-1,2,4-oxadiazol-3-yl)benzylamino)propanoic acid]	–	12 nM	1640 nM
O=C(O)C1CN(Cc2ccc(-c3noc(-c4cnn(CC5CC5)c4-c4ccncc4)n3)cc2)C1 [Example 101, 1-(4-(5-(1-(cyclopropylmethyl)-5-(pyridin-4-yl)-1H-pyrazol-4-yl)-1,2,4-oxadiazol-3-yl)benzyl)azetidine 3-carboxylic acid, formate]	1.8 nM	12 nM	1620 nM

Second part, the compound after the results:

Ki [1]	EC50 [2]	EC50 [3]	SMILES
–	8.5 nM	147 nM	c1cc(-c2c(-c3nc(-c4ccc(Cn5cncn5)cc4)no3)cnn2C2CCCCC2)ccn1 [Example 91, 3-(4-((1H-1,2,4-triazol-1-yl)methyl)phenyl)-5-(1-cyclohexyl-5-(pyridin-4-yl)-1H-pyrazol-4-yl)-1,2,4-oxadiazole]
6.5 nM	31 nM	2250 nM	CC(C)Cn1ncc(-c2nc(-c3ccc(CN4CC(C(=O)O)C4)cc3)no2)c1C1CCOCC1 [Example 96, 1-(4-(5-(1-isobutyl-5-(tetrahydro-2H-pyran-4-yl)-1H-pyrazol-4-yl)-1,2,4-oxadiazol-3-yl)benzyl)azetidine-3-carboxylic acid]
0.7 nM	1.4 nM	138 nM	O=C(O)C1CN(Cc2ccc(-c3noc(-c4cnn(C5CCCCC5)c4C4CCOCC4)n3)cc2)C1 [Example 97, 1-(4-(5-(1-cyclohexyl-5-(tetrahydro-2H-pyran-4-yl)-1H-pyrazol-4-yl)-1,2,4-oxadiazol-3-yl)benzyl)azetidine-3-carboxylic acid]
0.8 nM	2.1 nM	214 nM	O=C(O)CCNCc1ccc(-c2noc(-c3cnn(C4CCCCC4)c3C3CCOCC3)n2)cc1 [Example 102, 3-(4-(5-(1-cyclohexyl-5-(tetrahydro-2H-pyran-4-yl)-1H-pyrazol-4-yl)-1,2,4-oxadiazol-3-yl)benzylamino)propanoic acid]
2 nM	11 nM	622 nM	OCc1ccc(-c2noc(-c3cnn(C4CCCCC4)c3C3CCCO3)n2)cc1 (stereo not shown) [Example 117, (4-(5-(1-cyclohexyl-5-(tetrahydrofuran-2-yl)-1H-pyrazol-4-yl)-1,2,4-oxadiazol-3-yl)phenyl)methanol]
0.1 nM	0.5 nM	489 nM	COCCc1c(-c2nc(-c3ccc(CN4CC(C(=O)O)C4)cc3)no2)cnn1C1CCCCC1 [Example 120, 1-(4-(5-(1-cyclohexyl-5-(2-methoxyethyl)-1H-pyrazol-4-yl)-1,2,4-oxadiazol-3-yl)benzyl)azetidine-3-carboxylic acid]
0.6 nM	1.9 nM	427 nM	O=C(O)C1CCN(Cc2ccc(-c3noc(-c4cnn(C5CCCCC5)c4C4CCCO4)n3)cc2)CC1 (stereo not shown) [Example 125, 1-(4-(5-(1-cyclohexyl-5-(tetrahydrofuran-2-yl)-1H-pyrazol-4-yl)-1,2,4-oxadiazol-3-yl)benzyl)piperidine-4-carboxylic acid]
